Data as given in patent US20180327354A1, “Unnatural Analogues of Calcitriol and Uses Thereof” (Vidasym, Inc., priority 2009, published 2018).
Entries after “also recorded” stand apart in the source; their conditions may differ. Where two headings read alike, the source gives them in different places.

How the values were obtained:
[1] = system: CYP24A1; assay: CYP24A1 expression induction in HL-60 promyelocytic leukemia cells (real-time RT-PCR); assay type: cell-based; settings: Homo sapiens, HL-60 cells
Protocol: (§1) Some compounds were tested in HL-60 promyelocytic leukemia cells and a primary culture of human coronary artery smooth muscle cells (HCASMC) for CYP24A1 induction. It is well documented that CYP24A1 has a VDRE in its promoter region and is a specific target gene of VDR (Meyer et al., 2007, J Biol Chem 282: 22344-22352). […] Compounds also were tested in HCASMC for their effects in inducing VDR. To assess the suitability of a compound for modulating immune responses, compounds were tested in HL-60 for their effects in inducing CD14 expression. To assess the suitability of a compound for treating thrombosis, compounds also were tested in HCASMC for their effects in modulating thrombomodulin and thrombospondin-1.
(§2) Compounds are tested in human HL-60 promyelocytic leukemia cells to assess their potency in inducing the expression of CYP24A1 and CD14. HL-60 cells are cultured in IMDM supplemented with 20% heat-inactivated fetal bovine serum at 37° C. in a humidified 5% CO2-95% air atmosphere. Cells are plated into 6 well plates and treated with test agent for 24 h. Cells are lysed with the addition of 1 mL of Trizol and RNA prepared according to the manufacturer's protocol.
(§3) Real-time reverse transcription-PCR is performed with the forward and reverse PCR primers and 250 nM of the TAQMAN™ probe specifically designed for CYP24A1 or CD14. (A TAQMAN™ probe is comprised of a fluorophore covalently attached to the 5′-end of the oligonucleotide probe and a quencher at the 3′-end.) After the data acquisition, the CYP24A1 or CD14 mRNA expression level is normalized to the GAPDH mRNA level. FIGS. 2A and 2B show the results from a typical CYP24A1 (FIG. 2A) and CD14 (FIG. 2B) expression study.

[2] = system: 5/6 nephrectomized uremic rats; assay: Proteinuria in 5/6 nephrectomized uremic rats; assay type: in vivo, Sprague Dawley rats; settings: 5/6 NX rats, 3×/week, i.p. for 2 weeks, before versus after treatment
Protocol: The experimental conditions using the 5/6 (subtotal) nephrectomized rats were as described above. Urinary protein excretion was determined by urinary collection over a period of 24 h in metabolic cages at two time points: 24 h before the first dose and 24 hr after the last dose. Each animal was placed in a metabolic cage and urine was collected during a period of 24 h. Urinary protein concentration was determined by the biuret method (Morozova and Baryshnikova, 1991, Lab Delo 2:23-5). Total protein excretion per day was calculated by multiplying urinary protein concentration by total urine volume produced during the 24 h period.
Group mean±SEM are presented. Differences before versus after treatment were assessed using a t-test. Differences between SHAM, vehicle, and treated animals were assessed using a one-way ANOVA followed by a Dunnett's post-hoc test.

[3] = system: CD14; assay: CD14 expression induction in HL-60 promyelocytic leukemia cells (real-time RT-PCR); assay type: cell-based; settings: Homo sapiens, HL-60 cells
Protocol: as §1, §2, §3

[4] = system: thrombospondin-1; assay: Thrombospondin-1 protein in human coronary artery smooth muscle cells (Western blot); assay type: cell-based; settings: HCASMC, 48 h, FIG. 21A
Protocol: (§4) Human coronary artery smooth muscle cells (HCASM) were incubated with Vida-5 or Vida-11 at different concentrations for 48 h and then were solubilized in 50 al of SDS-PAGE sample buffer. The protein content in each sample was determined by the bicinchoninic acid protein assay. Samples were resolved by SDS-PAGE using a 4-12% NuPAGE gel, and proteins were electrophoretically transferred to polyvinylidene fluoride membrane for Western blotting. The membrane was blocked for 1 h at 25° C. with 5% nonfat dry milk in phosphate buffered saline Tween-20 (PBS-T) and then incubated with a mouse anti-thrombospondin-1 monoclonal antibody (2,000-fold dilution), or a mouse anti-TM monoclonal antibody (2,000-fold dilution) in PBS-T overnight at 4° C.
(§5) The membrane was washed with PBS-T and incubated with a horseradish peroxidase-labeled anti-mouse antibody for 1 h at 25° C. The membrane was then incubated with Amersham ECL Plus Western Blotting Detection Reagents. Specific bands were visualized by the Multiimage II of Alpha Innotech imaging system. Band intensity was quantified using Spot Denso.

[5] = system: thrombomodulin; assay: Thrombomodulin protein in human coronary artery smooth muscle cells (Western blot); assay type: cell-based; settings: HCASMC, 48 h, FIG. 21B
Protocol: as §4, §5

[6] = system: 5/6 nephrectomized uremic rats; assay: Serum creatinine, BUN, PTH, phosphorus and calcium in 5/6 nephrectomized uremic rats; assay type: in vivo, Sprague Dawley rats; settings: for effect on BUN / effect on serum PTH / effect on serum calcium / effect on serum creatinine / effect on serum phosphorus: 5/6 NX rats
Protocol: The nephrectomy of male, Sprague Dawley, 5/6 rats was performed using a standard two-step surgical ablation procedure (starting body weight ˜200 gm) as previously described (Slatopolsky et al., 1998, Am J Kidney Dis 32: S40-47). Sham operated rats were used as control. The rats were on a diet containing 1.13% calcium and 0.94% phosphorus. Six weeks after the second surgery, treatment was initiated with vehicle (5% ethanol+95% propylene glycol, 0.4 ml/kg) or test agent by intraperitoneal injection (i.p.), 3 times/week, for two weeks (n≥12 per group). Twenty-four hours after the last dose, retro-orbital venous blood was collected for measurement of PTH and other endpoints.
Calcium, serum phosphorus, creatinine, and blood urea nitrogen (BUN) concentrations were measured by a chemistry analyzer (LX-20, Beckman). Serum PTH was measured using a rat intact parathyroid hormone (i-PTH) ELISA kit. For serum chemistry data, group mean±SEM are presented. A t-test was used to analyze differences between baseline 6W (6 weeks after surgery before treatment) and 8W (8 weeks after surgery after two weeks of compound treatment).

[7] = Maximal absorbance wavelength and extinction coefficient (spectrophotometer scan); assay type: physicochemical; settings: for maximal absorbance wavelength / extinction coefficient: 100 μM in 50:50 de-ionized water and ethanol; for extinction coefficient: in M-1·cm-1 (unit assumed)
Protocol: To determine the maximal absorbance wavelength (ODmax) and the extinction coefficients for the compounds, each compound is diluted in a 50:50 solution (by volume) of de-ionized water and ethanol at 100 μM and scanned by a spectrophotometer.

[8] = system: 5/6 nephrectomized uremic rats; assay: Left ventricular hypertrophy in 5/6 nephrectomized uremic rats; assay type: in vivo, Sprague Dawley rats; settings: 5/6 NX rats, 0.16 and 0.64 μg/kg, LVH study
[9] = 24 h, mRNA normalized to GAPDH, Table 3 summary, some values average of 3 or more determinations, read-out: CYP24A1 EC50
[10] = 24 h, mRNA normalized to GAPDH, Table 3 summary, some values average of 3 or more determinations, read-out: CD14 EC50
[11] = i.p. 3 times/week for two weeks
[12] = 5/6 NX uremic rats, i.p. 3 times/week for two weeks

With `C=C1[C@H](O)CC(=C/C=C2\CCCC3(C)C2CCC3[C@@H](C)OC[C@H](C)C(C)(C)O)C[C@H]1O` (stereo partly drawn) [Vida-5, (1R,3R)-5-((E)-2-((3αS,7αS)-1-((R)-1-((S)-3-hydroxy-2,3-dimethylbutoxy)ethyl)-7α-methyldihydro-1H-inden-4(2H,5H,6H, 7H, 7αH)-ylidene)ethylidene)-2-methylenecyclohexane-1,3-diol] the EC50 [1, 9] was 7.3 nM, the EC50 ([1]; typical study, FIG. 2A, read-out: EC50 for inducing CYP24A1 expression) was 5.6 nM and the “proteinuria (urinary protein concentration and total protein per day)” value [2] was “reduce proteinuria; also recorded: significantly reduced proteinuria”. The EC50 [3, 10] was 3.7 nM, the EC50 ([3]; typical study, FIG. 2B, read-out: EC50 for inducing CD14 expression) was 4.1 nM and the thrombospondin-1 protein expression [4] was “suppress; also recorded: significantly reduced”. The thrombomodulin protein expression [5] was “induce; also recorded: increased”, the “effect on BUN” value [6, 11] was “significantly reduced BUN at the two higher doses (0.16 and 0.64 μg/kg)” and the “effect on serum PTH” value [6, 11] was “significantly suppress PTH levels in a dose-dependent manner”. The “effect on serum calcium” value [6, 11] was “did not have a significant effect”, the “effect on serum creatinine” value [6, 11] was “at the 4 lower doses, had no significant effect on serum creatinine, but the highest dose reduced serum creatinine” and the “effect on serum phosphorus” value [6, 11] was “did not have a significant effect”. For the same compound, the “dose at which compound starts to suppress serum PTH” value (“dose at which compound starts” for short) [6, 12] was 0.004 µg/kg, the maximal absorbance wavelength [7] was 253 nm and the extinction coefficient [7] was 48360. The “maximal absorbance wavelength (ODmax)” value ([7]; FIG. 1, typical absorbance profile) was 253 nm.

In the case of `CCC(O)(CC)CCO[C@H](C)C1CCC2/C(=C/C=C3C[C@@H](O)C4(CC4)[C@H](O)C3)CCCC21C` (stereo partly drawn) [Vida-10, (4R,8R)-6-((E)-2-((1S,7αS)-1-((R)-1-(3-ethyl-3-hydroxypentyloxy)ethyl)-7α-methyldihydro-1H-inden-4(2H,5H,6H,7H,7αH)-ylidene)ethylidene)spiro[2.5]octane-4,8-diol], the EC50 [1, 9] is reported as 6.8 nM, the EC50 [3, 10] is reported as 0.4 nM and the “effect on serum Ca” value [8] is reported as “no effect”. The “effect on BUN” value [6, 11] was “did not significantly affect”, the “effect on serum creatinine” value [6, 11] was “did not significantly affect” and the “effect on serum phosphorus” value [6, 11] was “did not significantly affect”. The “fold less potent in raising serum Ca than Vida-11” value ([6]; 5/6 NX uremic rats, FIG. 11A) was “at least 64 fold”, the “fold less potent in suppressing PTH than Vida-11” value ([6]; 5/6 NX uremic rats, FIG. 11B) was “about 16 fold” and the “dose at which compound starts” value [6, 12] was 0.16 µg/kg. It also gave a maximal absorbance wavelength [7] of 253 nm and an extinction coefficient [7] of 46990.

With `C=C1[C@H](O)CC(=C/C=C2\CCCC3(C)C2CCC3[C@@H](C)OCCC(O)(CC)CC)C[C@H]1O` (stereo partly drawn) [Vida-11, (1R,3R)-5-((E)-2-((1S,3αS,7αS)-1-((R)-1-(3-ethyl-3-hydroxypentyloxy)ethyl)-7α-methyldihydro-1H-inden-4(2H, 5H, 6H, 7H, 7αH)-ylidene)ethylidene)-2-methylenecyclohexane-1,3-diol] the EC50 [1, 9] was 0.8 nM, the “proteinuria (urinary protein concentration and total protein per day)” value [2] was “reduce proteinuria; also recorded: significantly reduced proteinuria” and the EC50 [3, 10] was 0.9 nM. The “effect on BUN” value [6, 11] was “no dose-dependent effect”, the “effect on serum PTH” value [6, 11] was “significantly suppress PTH levels in a dose-dependent manner” and the “effect on serum calcium” value [6, 11] was “elevated serum Ca in a dose-dependent manner”. For the same compound, the “effect on serum creatinine” value [6, 11] was “no dose-dependent effect”, the “effect on serum phosphorus” value [6, 11] was “did not show a significant effect” and the “dose at which compound raises serum Ca” value [6, 12] was 0.01 µg/kg. For the same compound, the “dose at which compound starts” value [6, 12] was 0.01 µg/kg, the maximal absorbance wavelength [7] was 254 nm and the extinction coefficient [7] was 60100.
